# Measurements reported in article PMC7584476, “Safety and efficacy of BAY1436032 in IDH1-mutant AML: phase I study results” (Leukemia, 2020).
# Test system: subjects with mIDH1 advanced AML
# Experiment: Phase I study: safety and tolerability (TEAE, DLT, MTD, ECG)
# Type: in vivo
# Protocol: This study was an open-label, nonrandomized, multicenter phase I trial. Subjects were screened at 13 hospital sites in 2 countries (USA and Germany). The study was to consist of dose-escalation followed by dose-expansion. The MTD identified in dose-escalation was to be used in the dose-expansion. If MTD was not reached in dose-escalation, a dose for the expansion would be selected based on available PK, pharmacodynamic, safety, and efficacy data. BAY1436032 was administered twice-daily (BID) in continuous 28-day cycles. In dose-escalation, up to 9 evaluable subjects could be enrolled per cohort, with a minimum of 3 dose-limiting toxicity (DLT)-free evaluable subjects required prior to escalating to the next highest dose. Bayesian dose-DLT modeling was performed to help guide dosing decisions.
# DLTs were differentially defined for nonhematopoietic versus hematopoietic toxicities. Nonhematopoietic toxicities of ≥grade 3 occurring during the first cycle of treatment were to be considered DLTs with the following exceptions: (1) Alopecia and nausea controlled by medical management; (2) Tumor lysis syndrome if successfully managed clinically and resolved within 7 days without any end-organ damage; (3) Differentiation syndrome (DS) if successfully managed clinically and resolved within 7 days without any end-organ damage; (4) Asymptomatic ≥grade 3 electrolyte abnormalities not considered clinically significant by the investigator. […] For certain toxicities such as laboratory assessments without a clear clinical correlate, a discussion between the investigator and the sponsor determined whether the adverse event (AE) should be assessed as a DLT.
# DLTs identified during the first cycle of treatment were used to guide dose-escalation decisions and to determine the MTD, and if safety issues appeared in subsequent cycles they were also to be considered. Hydroxyurea was permitted during the first cycle if white blood cell (WBC) exceeded 20 × 10^9/L and was also permitted for treatment of DS.
# Safety and tolerability were evaluated by analysis of adverse events, physical examinations, vital signs, ECOG performance status, and various laboratory assessments. For safety monitoring, subjects were scheduled for clinic visits every week for the initial three cycles of treatment, after which time visits could be reduced to every-other-week with investigator and sponsor agreement. Cardiac function was assessed with triplicate 12-lead electrocardiograms (ECG) at screening, C1-D1, C1-D2, C1-D15, D1 of every subsequent cycle, and at treatment end. […] AEs are presented by the Medical Dictionary for Regulatory Activities (MedDRA) v21.1.
smiles,measurement,setting,value
C[C@H]1C[C@@H](n2c(Nc3ccc(OC(F)(F)F)cc3)nc3cc(CCC(=O)O)ccc32)CC(C)(C)C1 [BAY1436032],Related TEAE Decreased appetite Grade 1,"300 mg BID, n=7",1
same,Related TEAE Decreased appetite Grade 2,"300 mg BID, n=7",1
same,Related TEAE Diarrhea Grade 2,"300 mg BID, n=7",0
same,Related TEAE Differentiation syndrome Grade 2,"300 mg BID, n=7",0
same,Related TEAE Differentiation syndrome Grade 3,"300 mg BID, n=7",0
same,Related TEAE Dyspnea Grade 1,"300 mg BID, n=7",1
same,Related TEAE Dyspnea Grade 2,"300 mg BID, n=7",1
same,Related TEAE Fatigue Grade 1,"300 mg BID, n=7",0
same,Related TEAE Fatigue Grade 2,"300 mg BID, n=7",1
same,Related TEAE Fatigue Grade 3,"300 mg BID, n=7",0
same,Related TEAE Hypomagnesaemia Grade 1,"300 mg BID, n=7",1
same,Related TEAE Nausea Grade 1,"300 mg BID, n=7",1
same,Related TEAE Nausea Grade 2,"300 mg BID, n=7",1
same,Related TEAE Sinus tachycardia Grade 1,"300 mg BID, n=7",1
same,Related TEAE Vomiting Grade 1,"300 mg BID, n=7",2
same,TEAE Abdominal pain upper Grade 1,"300 mg BID, n=7",0
same,TEAE Abdominal pain upper Grade 2,"300 mg BID, n=7",0
same,TEAE Acute kidney injury Grade 1,"300 mg BID, n=7",1
same,TEAE Acute kidney injury Grade 2,"300 mg BID, n=7",1
same,TEAE Acute kidney injury Grade 3,"300 mg BID, n=7",0
same,TEAE Anaemia Grade 3,"300 mg BID, n=7",0
same,TEAE Anaemia Grade 4,"300 mg BID, n=7",1
same,TEAE Anxiety Grade 1,"300 mg BID, n=7",1
same,TEAE Anxiety Grade 2,"300 mg BID, n=7",0
same,TEAE Arthralgia Grade 1,"300 mg BID, n=7",0
same,TEAE Arthralgia Grade 2,"300 mg BID, n=7",0
same,TEAE Constipation Grade 1,"300 mg BID, n=7",0
same,TEAE Constipation Grade 2,"300 mg BID, n=7",1
same,TEAE Contusion Grade 1,"300 mg BID, n=7",1
same,TEAE Contusion Grade 2,"300 mg BID, n=7",0
same,TEAE Cough Grade 1,"300 mg BID, n=7",2
same,TEAE Cough Grade 2,"300 mg BID, n=7",1
same,TEAE Decreased appetite Grade 1,"300 mg BID, n=7",3
same,TEAE Decreased appetite Grade 2,"300 mg BID, n=7",1
same,TEAE Decreased appetite Grade 3,"300 mg BID, n=7",0
same,TEAE Diarrhea Grade 1,"300 mg BID, n=7",4
same,TEAE Diarrhea Grade 2,"300 mg BID, n=7",0
same,TEAE Dry skin Grade 1,"300 mg BID, n=7",2
same,TEAE Dyspnoea Grade 1,"300 mg BID, n=7",2
same,TEAE Dyspnoea Grade 2,"300 mg BID, n=7",1
same,TEAE Dyspnoea Grade 3,"300 mg BID, n=7",2
same,TEAE Epistaxis Grade 1,"300 mg BID, n=7",0
same,TEAE Epistaxis Grade 2,"300 mg BID, n=7",0
same,TEAE Epistaxis Grade 3,"300 mg BID, n=7",0
same,TEAE Fall Grade 1,"300 mg BID, n=7",0
same,TEAE Fatigue Grade 1,"300 mg BID, n=7",2
same,TEAE Fatigue Grade 2,"300 mg BID, n=7",1
same,TEAE Fatigue Grade 3,"300 mg BID, n=7",1
same,TEAE Febrile neutropenia Grade 3,"300 mg BID, n=7",2
same,TEAE General physical health deterioration Grade 3,"300 mg BID, n=7",0
same,TEAE General physical health deterioration Grade 5,"300 mg BID, n=7",0
same,TEAE Gingivitis Grade 1,"300 mg BID, n=7",2
same,TEAE Haematuria Grade 1,"300 mg BID, n=7",1
same,TEAE Haematuria Grade 2,"300 mg BID, n=7",0
same,TEAE Haematuria Grade 3,"300 mg BID, n=7",0
same,TEAE Headache Grade 1,"300 mg BID, n=7",1
same,TEAE Headache Grade 2,"300 mg BID, n=7",2
same,TEAE Headache Grade 3,"300 mg BID, n=7",0
same,TEAE Hyperkalaemia Grade 1,"300 mg BID, n=7",1
same,TEAE Hyperkalaemia Grade 4,"300 mg BID, n=7",0
same,TEAE Hypertension Grade 2,"300 mg BID, n=7",0
same,TEAE Hypertension Grade 3,"300 mg BID, n=7",0
same,TEAE Hyperuricaemia Grade 1,"300 mg BID, n=7",0
same,TEAE Hyperuricaemia Grade 3,"300 mg BID, n=7",0
same,TEAE Hypokalaemia Grade 1,"300 mg BID, n=7",2
same,TEAE Hypokalaemia Grade 2,"300 mg BID, n=7",0
same,TEAE Hypokalaemia Grade 3,"300 mg BID, n=7",1
same,TEAE Hyponatraemia Grade 1,"300 mg BID, n=7",2
same,TEAE Hyponatraemia Grade 3,"300 mg BID, n=7",0
same,TEAE Hypophosphataemia Grade 1,"300 mg BID, n=7",0
same,TEAE Hypophosphataemia Grade 2,"300 mg BID, n=7",1
same,TEAE Leukocytosis Grade 2,"300 mg BID, n=7",1
same,TEAE Leukocytosis Grade 3,"300 mg BID, n=7",1
same,TEAE Lung infection Grade 3,"300 mg BID, n=7",1
same,TEAE Lung infection Grade 5,"300 mg BID, n=7",1
same,TEAE Nausea Grade 1,"300 mg BID, n=7",1
same,TEAE Nausea Grade 2,"300 mg BID, n=7",1
same,TEAE Nausea Grade 3,"300 mg BID, n=7",0
same,TEAE Oedema peripheral Grade 1,"300 mg BID, n=7",3
same,TEAE Oedema peripheral Grade 3,"300 mg BID, n=7",1
same,TEAE Pain in extremity Grade 1,"300 mg BID, n=7",1
same,TEAE Pain in extremity Grade 2,"300 mg BID, n=7",0
same,TEAE Pneumonia Grade 1,"300 mg BID, n=7",0
same,TEAE Pneumonia Grade 2,"300 mg BID, n=7",1
same,TEAE Pneumonia Grade 3,"300 mg BID, n=7",1
same,TEAE Pneumonia fungal Grade 2,"300 mg BID, n=7",0
same,TEAE Pneumonia fungal Grade 3,"300 mg BID, n=7",0
same,TEAE Pneumonia fungal Grade 4,"300 mg BID, n=7",0
same,TEAE Productive cough Grade 1,"300 mg BID, n=7",0
same,TEAE Productive cough Grade 2,"300 mg BID, n=7",0
same,TEAE Pyrexia Grade 1,"300 mg BID, n=7",0
same,TEAE Pyrexia Grade 2,"300 mg BID, n=7",0
same,TEAE Pyrexia Grade 3,"300 mg BID, n=7",0
same,TEAE Rash Grade 1,"300 mg BID, n=7",0
same,TEAE Rash Grade 2,"300 mg BID, n=7",0
same,TEAE Sepsis Grade 4,"300 mg BID, n=7",2
same,TEAE Sepsis Grade 5,"300 mg BID, n=7",1
same,TEAE Sinus tachycardia Grade 1,"300 mg BID, n=7",2
same,TEAE Thrombocytopenia Grade 4,"300 mg BID, n=7",0
same,TEAE Vomiting Grade 1,"300 mg BID, n=7",3
same,TEAE Weight decreased Grade 1,"300 mg BID, n=7",2
same,TEAE Weight decreased Grade 2,"300 mg BID, n=7",0
same,TEAE Weight decreased Grade 3,"300 mg BID, n=7",0
same,Related TEAE Decreased appetite Grade 1,"600 mg BID, n=4",0
same,Related TEAE Decreased appetite Grade 2,"600 mg BID, n=4",0
same,Related TEAE Diarrhea Grade 2,"600 mg BID, n=4",0
same,Related TEAE Differentiation syndrome Grade 2,"600 mg BID, n=4",0
same,Related TEAE Differentiation syndrome Grade 3,"600 mg BID, n=4",0
same,Related TEAE Dyspnea Grade 1,"600 mg BID, n=4",0
same,Related TEAE Dyspnea Grade 2,"600 mg BID, n=4",0
same,Related TEAE Fatigue Grade 1,"600 mg BID, n=4",1
same,Related TEAE Fatigue Grade 2,"600 mg BID, n=4",0
same,Related TEAE Fatigue Grade 3,"600 mg BID, n=4",0
same,Related TEAE Hypomagnesaemia Grade 1,"600 mg BID, n=4",0
same,Related TEAE Nausea Grade 1,"600 mg BID, n=4",1
same,Related TEAE Nausea Grade 2,"600 mg BID, n=4",0
same,Related TEAE Sinus tachycardia Grade 1,"600 mg BID, n=4",0
same,Related TEAE Vomiting Grade 1,"600 mg BID, n=4",1
same,TEAE Abdominal pain upper Grade 1,"600 mg BID, n=4",0
same,TEAE Abdominal pain upper Grade 2,"600 mg BID, n=4",0
same,TEAE Acute kidney injury Grade 1,"600 mg BID, n=4",0
same,TEAE Acute kidney injury Grade 2,"600 mg BID, n=4",0
same,TEAE Acute kidney injury Grade 3,"600 mg BID, n=4",1
same,TEAE Anaemia Grade 3,"600 mg BID, n=4",1
same,TEAE Anaemia Grade 4,"600 mg BID, n=4",0
same,TEAE Anxiety Grade 1,"600 mg BID, n=4",0
same,TEAE Anxiety Grade 2,"600 mg BID, n=4",0
same,TEAE Arthralgia Grade 1,"600 mg BID, n=4",0
same,TEAE Arthralgia Grade 2,"600 mg BID, n=4",0
same,TEAE Constipation Grade 1,"600 mg BID, n=4",0
same,TEAE Constipation Grade 2,"600 mg BID, n=4",0
same,TEAE Contusion Grade 1,"600 mg BID, n=4",0
same,TEAE Contusion Grade 2,"600 mg BID, n=4",0
same,TEAE Cough Grade 1,"600 mg BID, n=4",1
same,TEAE Cough Grade 2,"600 mg BID, n=4",0
